In ChEMBL document CHEMBL6177980 (J Med Chem, 2025):
Active and inactive are the calls of the source. The rule behind the calls is not given here.

What was measured:
[1] = tested on: Severe fever with thrombocytopenia syndrome virus; experiment: In vivo antiviral activity against SFTSV infected in mouse harboring IFNAR1tm1Agt assessed as improvement in lymphocytes percentage treated orally once daily for 7 days; type: functional, organism-based; settings: dose 2.5-100 mg/kg, route po, time 7.0 day
[2] = tested on: Severe fever with thrombocytopenia syndrome virus; experiment: In vivo antiviral activity against SFTSV infected in mouse harboring IFNAR1tm1Agt assessed as improvement in lymphocytes percentage at 300 mg/kg, po qd treated for 7 days relative to control; type: functional, organism-based; settings: time 7.0 day

| SMILES | Activity [1] | Activity [2] |
| --- | --- | --- |
| CC(C)C(=O)OC[C@@]1(F)O[C@@H](n2ccc(=O)n(COC(=O)c3cccnc3)c2=O)[C@H](OC(=O)C(C)C)[C@@H]1OC(=O)C(C)C | Dose-dependent-effect | – |
| NC(=O)c1nc(F)cnc1O | – | Active |
